Reference: PubChem BioAssay AID180 (DTP/NCI, 2004)
“And” between values parts separate entries of the source, which are not always exact repeats. Equal values may be shown once.

Tested on: BDF1 mice, Adenocarcinoma 755 s.c., tumor weight T/C
Assay: NCI In Vivo Anticancer Drug Screen. Data for tumor model Adenocarcinoma 755 (subcutaneous) in B6D2F1 (BDF1) mice
Conditions: endpoint: mean tumor weight, higher = larger tumour
Outline: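 Values express treated (T) relative to vehicle-dosed control (C) animals, based on survival or tumour size measured after compound treatment of mice bearing a transplanted tumour.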

[1] = dose: 0.5 mg/kg/injection, schedule: Q01DX011 (ip), vehicle: carboxymethylcellulose (CMC)
[2] = dose: 50.0 mg/kg/injection, schedule: Q01DX011 (ip), vehicle: water

Structure (SMILES): CCOC(=O)C(N)Cc1ccc(N(CCCl)CCCl)cc1 (centres undefined)
- T/C [1]: 92 % of control
- T/C (dose: 0.5 mg/kg/injection, schedule: Q01DX011 (ip), vehicle: saline): 82 % of control
- T/C (dose: 1.1 mg/kg/injection, schedule: Q01DX011 (ip), vehicle: carboxymethylcellulose (CMC)): 77 % of control
- T/C (dose: 1.1 mg/kg/injection, schedule: Q01DX011 (ip), vehicle: saline): 40 % of control
- T/C (dose: 2.2 mg/kg/injection, schedule: Q01DX011 (ip), vehicle: carboxymethylcellulose (CMC)): 91 % of control
- T/C (dose: 2.2 mg/kg/injection, schedule: Q01DX011 (ip), vehicle: saline): 9 % of control
- T/C (dose: 4.5 mg/kg/injection, schedule: Q01DX011 (ip), vehicle: carboxymethylcellulose (CMC)): 78 % of control
- T/C (dose: 4.5 mg/kg/injection, schedule: Q01DX011 (ip), vehicle: saline): 1 % of control
- T/C (dose: 9.0 mg/kg/injection, schedule: Q01DX011 (ip), vehicle: carboxymethylcellulose (CMC)): 69 % of control

Structure (SMILES): CC1CCCCN1/N=N/c1nc2c([nH]1)c(=O)n(C)c(=O)n2C (centres undefined)
- T/C (dose: 25.0 mg/kg/injection, schedule: Q01DX011 (ip), vehicle: methylcellulose (MC)): 59 % of control
- T/C (dose: 75.0 mg/kg/injection, schedule: Q01DX011 (ip), vehicle: methylcellulose (MC)): 68 % of control

Structure (SMILES): Nc1nc(=S)c2ncn(C3OC(CO)C(O)C3O)c2[nH]1 (centres undefined)
- T/C (dose: 0.03 mg/kg/injection, schedule: Q01DX011 (ip), vehicle: carboxymethylcellulose (CMC)): 43 % of control
- T/C (dose: 0.07 mg/kg/injection, schedule: Q01DX011 (ip), vehicle: carboxymethylcellulose (CMC)): 90 % of control
- T/C (dose: 0.13 mg/kg/injection, schedule: Q01DX011 (ip), vehicle: carboxymethylcellulose (CMC)): 81 % of control
- T/C [1]: 29 % of control and 37 % of control
- T/C (dose: 1.0 mg/kg/injection, schedule: Q01DX011 (ip), vehicle: carboxymethylcellulose (CMC)): 6 % of control and 7 % of control
- T/C (dose: 1.5 mg/kg/injection, schedule: Q01DX011 (ip), vehicle: carboxymethylcellulose (CMC)): 4 % of control
- T/C (dose: 1.5 mg/kg/injection, schedule: Q01DX011 (ip), vehicle: methylcellulose (MC)): 2 % of control
- T/C (dose: 2.0 mg/kg/injection, schedule: Q01DX011 (ip), vehicle: carboxymethylcellulose (CMC)): 4 % of control
- T/C (dose: 3.0 mg/kg/injection, schedule: Q01DX011 (ip), vehicle: carboxymethylcellulose (CMC)): 3 % of control
- T/C (dose: 3.0 mg/kg/injection, schedule: Q01DX011 (ip), vehicle: methylcellulose (MC)): 1 % of control

Structure (SMILES): CC(=O)N(C)C
- T/C (dose: 125.0 mg/kg/injection, schedule: Q#A X022 (ip), vehicle: saline): 84 % of control
- T/C (dose: 250.0 mg/kg/injection, schedule: Q01DX011 (ip), vehicle: saline): 93 % of control and 105 % of control
- T/C (dose: 250.0 mg/kg/injection, schedule: Q01DX011 (sc), vehicle: saline): 100 % of control
- T/C (dose: 250.0 mg/kg/injection, schedule: Q03DX004 (ip), vehicle: saline): 64 % of control
- T/C (dose: 500.0 mg/kg/injection, schedule: Q01DX006 (iv), vehicle: saline): 99 % of control
- T/C (dose: 500.0 mg/kg/injection, schedule: Q01DX011 (im), vehicle: saline): 155 % of control
- T/C (dose: 500.0 mg/kg/injection, schedule: Q01DX011 (ip), vehicle: saline): 98 % of control and 77 % of control
- T/C (dose: 500.0 mg/kg/injection, schedule: Q03DX004 (ip), vehicle: saline): 79 % of control
- T/C (dose: 500.0 mg/kg/injection, schedule: Q#A X022 (ip), vehicle: saline): 57 % of control
- T/C (dose: 750.0 mg/kg/injection, schedule: Q01DX011 (ip), vehicle: other): 28 % of control
- T/C (dose: 750.0 mg/kg/injection, schedule: Q03DX004 (ip), vehicle: saline): 84 % of control
- T/C (dose: 1000.0 mg/kg/injection, schedule: Q01DX001 (ip), vehicle: saline): 72 % of control and 84 % of control
- T/C (dose: 1000.0 mg/kg/injection, schedule: Q01DX006 (iv), vehicle: saline): 80 % of control
- T/C (dose: 1000.0 mg/kg/injection, schedule: Q01DX011 (im), vehicle: saline): 78 % of control
- T/C (dose: 1000.0 mg/kg/injection, schedule: Q01DX011 (ip), vehicle: other): 16 % of control
- T/C (dose: 1000.0 mg/kg/injection, schedule: Q01DX011 (sc), vehicle: saline): 66 % of control and 71 % of control
- T/C (dose: 1000.0 mg/kg/injection, schedule: Q03DX004 (ip), vehicle: saline): 91 % of control
- T/C (dose: 1000.0 mg/kg/injection, schedule: Q#A X022 (ip), vehicle: saline): 29 % of control
- T/C (dose: 1250.0 mg/kg/injection, schedule: Q01DX011 (ip), vehicle: other): 5 % of control
- T/C (dose: 1500.0 mg/kg/injection, schedule: Q03DX004 (ip), vehicle: saline): 81 % of control
- T/C (dose: 2000.0 mg/kg/injection, schedule: Q01DX006 (iv), vehicle: saline): 67 % of control
- T/C (dose: 2000.0 mg/kg/injection, schedule: Q01DX011 (im), vehicle: saline): 22 % of control
- T/C (dose: 2000.0 mg/kg/injection, schedule: Q01DX011 (ip), vehicle: saline): 16 % of control and 17 % of control
- T/C (dose: 2000.0 mg/kg/injection, schedule: Q01DX011 (oral), vehicle: saline): 48 % of control and 57 % of control
- T/C (dose: 2000.0 mg/kg/injection, schedule: Q01DX011 (sc), vehicle: saline): 64 % of control
- T/C (dose: 2000.0 mg/kg/injection, schedule: Q03DX004 (ip), vehicle: saline): 69 % of control
- T/C (dose: 3000.0 mg/kg/injection, schedule: Q03DX004 (ip), vehicle: saline): 36 % of control
- T/C (dose: 4000.0 mg/kg/injection, schedule: Q01DX011 (oral), vehicle: saline): 11 % of control

Structure (SMILES): Cc1cc2nc3c(=O)[nH]c(=O)nc-3n(CC(O)C(O)C(O)C(O)CO)c2cc1C (centres undefined)
- T/C (dose: 12.0 mg/kg/injection, schedule: Q01DX011 (ip), vehicle: carboxymethylcellulose (CMC)): 96 % of control and 111 % of control
- T/C (dose: 14.13 mg/kg/injection, schedule: Q01DX011 (ip), vehicle: carboxymethylcellulose (CMC)): 91 % of control
- T/C (dose: 19.0 mg/kg/injection, schedule: Q01DX011 (ip), vehicle: carboxymethylcellulose (CMC)): 90 % of control and 76 % of control
- T/C (dose: 26.25 mg/kg/injection, schedule: Q01DX011 (ip), vehicle: carboxymethylcellulose (CMC)): 79 % of control
- T/C (dose: 28.25 mg/kg/injection, schedule: Q01DX011 (ip), vehicle: carboxymethylcellulose (CMC)): 122 % of control
- T/C (dose: 52.5 mg/kg/injection, schedule: Q01DX011 (ip), vehicle: carboxymethylcellulose (CMC)): 95 % of control
- T/C (dose: 56.5 mg/kg/injection, schedule: Q01DX011 (ip), vehicle: carboxymethylcellulose (CMC)): 60 % of control
- T/C (dose: 62.5 mg/kg/injection, schedule: Q01DX011 (ip), vehicle: methylcellulose (MC)): 94 % of control
- T/C (dose: 105.0 mg/kg/injection, schedule: Q01DX011 (ip), vehicle: carboxymethylcellulose (CMC)): 116 % of control
- T/C (dose: 113.0 mg/kg/injection, schedule: Q01DX011 (ip), vehicle: carboxymethylcellulose (CMC)): 62 % of control
- T/C (dose: 125.0 mg/kg/injection, schedule: Q01DX011 (ip), vehicle: methylcellulose (MC)): 27 % of control
- T/C (dose: 210.0 mg/kg/injection, schedule: Q01DX011 (ip), vehicle: carboxymethylcellulose (CMC)): 101 % of control

Structure (SMILES): O=C(Nc1ccc(C2=NCCN2)cc1)c1cccc(C(=O)Nc2ccc(C3=NCCN3)cc2)c1
- T/C (dose: 9.0 mg/kg/injection, schedule: Q01DX011 (ip), vehicle: water): 110 % of control
- T/C (dose: 9.4 mg/kg/injection, schedule: Q01DX011 (ip), vehicle: carboxymethylcellulose (CMC)): 76 % of control
- T/C (dose: 12.0 mg/kg/injection, schedule: Q01DX011 (ip), vehicle: water): 165 % of control
- T/C (dose: 15.0 mg/kg/injection, schedule: Q01DX011 (ip), vehicle: methylcellulose (MC)): 86 % of control
- T/C (dose: 18.0 mg/kg/injection, schedule: Q01DX011 (ip), vehicle: water): 108 % of control
- T/C (dose: 18.75 mg/kg/injection, schedule: Q01DX011 (ip), vehicle: carboxymethylcellulose (CMC)): 60 % of control
- T/C (dose: 25.0 mg/kg/injection, schedule: Q01DX011 (ip), vehicle: water): 60 % of control
- T/C (dose: 30.0 mg/kg/injection, schedule: Q01DX011 (ip), vehicle: methylcellulose (MC)): 64 % of control
- T/C (dose: 37.5 mg/kg/injection, schedule: Q01DX011 (ip), vehicle: water): 47 % of control
- T/C [2]: 59 % of control
- T/C (dose: 60.0 mg/kg/injection, schedule: Q01DX011 (ip), vehicle: methylcellulose (MC)): 67 % of control
- T/C (dose: 120.0 mg/kg/injection, schedule: Q01DX011 (ip), vehicle: methylcellulose (MC)): 37 % of control

Structure (SMILES): CNC(=O)NO
- T/C [2]: 65 % of control
- T/C (dose: 100.0 mg/kg/injection, schedule: Q01DX011 (ip), vehicle: water): 43 % of control

Structure (SMILES): CS(=O)(=O)OCCC(=O)Nc1ccc(NC(=O)CCOS(C)(=O)=O)cc1
- T/C (dose: 46.0 mg/kg/injection, schedule: Q01DX011 (ip), vehicle: methylcellulose (MC)): 117 % of control
- T/C (dose: 91.0 mg/kg/injection, schedule: Q01DX011 (ip), vehicle: methylcellulose (MC)): 111 % of control
- T/C (dose: 183.0 mg/kg/injection, schedule: Q01DX011 (ip), vehicle: methylcellulose (MC)): 85 % of control
- T/C (dose: 375.0 mg/kg/injection, schedule: Q01DX011 (ip), vehicle: methylcellulose (MC)): 117 % of control
